In assay [1] the target is T1, Alpha-2A adrenergic receptor (Homo sapiens, UniProt P08913).
T1 sequence (P08913 whole entry): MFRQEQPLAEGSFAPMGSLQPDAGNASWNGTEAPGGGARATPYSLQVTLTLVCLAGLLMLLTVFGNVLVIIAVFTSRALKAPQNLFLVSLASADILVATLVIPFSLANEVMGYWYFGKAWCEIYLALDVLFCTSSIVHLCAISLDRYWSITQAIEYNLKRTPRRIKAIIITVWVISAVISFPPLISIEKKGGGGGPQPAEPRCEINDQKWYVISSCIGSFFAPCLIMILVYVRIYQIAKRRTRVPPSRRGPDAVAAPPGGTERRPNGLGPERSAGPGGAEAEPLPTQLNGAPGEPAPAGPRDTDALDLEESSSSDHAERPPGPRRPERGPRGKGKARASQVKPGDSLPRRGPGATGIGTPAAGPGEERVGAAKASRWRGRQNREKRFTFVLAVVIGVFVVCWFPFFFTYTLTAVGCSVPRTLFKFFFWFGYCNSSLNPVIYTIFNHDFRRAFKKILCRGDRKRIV

A further assay concerns the target Histamine H3 receptor (Homo sapiens, UniProt Q9Y5N1).
Assay [2] concerns the target 5-hydroxytryptamine receptor 2B (Homo sapiens, UniProt P41595). The class given is functional, cell-based.
Assay [3] deals with cGMP-inhibited 3',5'-cyclic phosphodiesterase 3A (Homo sapiens, UniProt Q14432). The class given is functional.
Sequence of cGMP-inhibited 3',5'-cyclic phosphodiesterase 3A (Q14432 whole entry): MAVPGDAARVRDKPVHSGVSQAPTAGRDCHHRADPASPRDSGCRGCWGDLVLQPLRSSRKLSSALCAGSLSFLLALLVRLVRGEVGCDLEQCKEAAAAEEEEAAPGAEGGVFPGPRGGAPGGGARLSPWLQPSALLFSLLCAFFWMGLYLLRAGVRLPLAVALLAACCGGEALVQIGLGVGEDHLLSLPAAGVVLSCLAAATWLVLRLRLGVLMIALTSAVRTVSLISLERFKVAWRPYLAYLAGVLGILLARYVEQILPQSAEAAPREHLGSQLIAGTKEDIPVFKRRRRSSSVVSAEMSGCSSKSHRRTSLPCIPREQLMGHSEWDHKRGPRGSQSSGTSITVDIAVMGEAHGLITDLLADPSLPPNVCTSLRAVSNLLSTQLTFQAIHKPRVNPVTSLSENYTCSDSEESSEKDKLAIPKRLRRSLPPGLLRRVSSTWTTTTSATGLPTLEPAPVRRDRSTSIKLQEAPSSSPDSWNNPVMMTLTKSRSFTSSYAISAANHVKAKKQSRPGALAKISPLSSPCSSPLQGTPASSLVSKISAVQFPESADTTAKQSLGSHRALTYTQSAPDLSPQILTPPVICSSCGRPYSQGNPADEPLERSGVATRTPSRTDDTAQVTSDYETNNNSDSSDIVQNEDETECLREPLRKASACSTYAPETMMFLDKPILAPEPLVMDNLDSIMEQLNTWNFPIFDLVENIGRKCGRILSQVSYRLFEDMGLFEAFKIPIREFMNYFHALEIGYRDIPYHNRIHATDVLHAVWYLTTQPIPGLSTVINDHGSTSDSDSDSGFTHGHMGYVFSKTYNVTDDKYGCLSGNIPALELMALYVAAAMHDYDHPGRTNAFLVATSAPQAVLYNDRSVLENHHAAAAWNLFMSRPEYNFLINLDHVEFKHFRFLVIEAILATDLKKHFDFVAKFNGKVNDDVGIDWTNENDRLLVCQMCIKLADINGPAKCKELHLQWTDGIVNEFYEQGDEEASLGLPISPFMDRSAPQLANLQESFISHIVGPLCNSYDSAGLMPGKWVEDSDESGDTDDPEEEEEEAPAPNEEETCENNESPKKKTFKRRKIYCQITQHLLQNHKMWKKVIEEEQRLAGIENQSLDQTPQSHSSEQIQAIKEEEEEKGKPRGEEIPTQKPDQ
For assay [4], the target named is Sodium-dependent dopamine transporter (Homo sapiens, UniProt Q01959).
Sequence of Sodium-dependent dopamine transporter (Q01959 whole entry): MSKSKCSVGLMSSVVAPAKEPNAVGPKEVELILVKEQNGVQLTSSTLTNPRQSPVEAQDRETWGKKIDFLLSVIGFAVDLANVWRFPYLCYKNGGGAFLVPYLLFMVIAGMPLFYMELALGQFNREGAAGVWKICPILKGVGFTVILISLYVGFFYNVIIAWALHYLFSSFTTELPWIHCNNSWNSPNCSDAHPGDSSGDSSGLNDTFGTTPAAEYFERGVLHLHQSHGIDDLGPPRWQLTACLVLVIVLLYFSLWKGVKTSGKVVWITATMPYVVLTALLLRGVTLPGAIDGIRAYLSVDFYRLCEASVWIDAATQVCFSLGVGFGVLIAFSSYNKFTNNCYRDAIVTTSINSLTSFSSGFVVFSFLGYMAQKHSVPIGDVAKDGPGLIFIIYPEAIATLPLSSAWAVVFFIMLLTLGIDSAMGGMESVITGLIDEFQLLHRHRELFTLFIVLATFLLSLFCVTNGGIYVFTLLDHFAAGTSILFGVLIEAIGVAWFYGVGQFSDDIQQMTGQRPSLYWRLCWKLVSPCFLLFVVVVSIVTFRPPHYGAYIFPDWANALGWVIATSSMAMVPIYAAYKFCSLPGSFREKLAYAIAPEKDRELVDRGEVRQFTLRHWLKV
Assay [5] concerns the target T2, Alpha-2B adrenergic receptor (Homo sapiens, UniProt P18089).
T2 sequence (P18089 whole entry): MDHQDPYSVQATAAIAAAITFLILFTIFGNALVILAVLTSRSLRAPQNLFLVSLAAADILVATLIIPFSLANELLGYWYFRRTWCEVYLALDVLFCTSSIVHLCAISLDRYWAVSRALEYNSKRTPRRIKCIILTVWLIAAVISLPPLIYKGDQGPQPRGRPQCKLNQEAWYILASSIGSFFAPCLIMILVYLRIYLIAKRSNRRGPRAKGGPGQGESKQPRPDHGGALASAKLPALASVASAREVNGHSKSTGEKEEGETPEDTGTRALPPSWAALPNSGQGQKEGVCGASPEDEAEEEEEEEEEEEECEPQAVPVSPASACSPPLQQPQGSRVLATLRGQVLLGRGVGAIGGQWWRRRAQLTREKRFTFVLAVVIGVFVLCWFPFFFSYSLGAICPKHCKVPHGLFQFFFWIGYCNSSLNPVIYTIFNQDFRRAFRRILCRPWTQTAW

Assay [6] concerns the target T3, Gastrin/cholecystokinin type B receptor (Homo sapiens, UniProt P32239).
T3 sequence (P32239 whole entry): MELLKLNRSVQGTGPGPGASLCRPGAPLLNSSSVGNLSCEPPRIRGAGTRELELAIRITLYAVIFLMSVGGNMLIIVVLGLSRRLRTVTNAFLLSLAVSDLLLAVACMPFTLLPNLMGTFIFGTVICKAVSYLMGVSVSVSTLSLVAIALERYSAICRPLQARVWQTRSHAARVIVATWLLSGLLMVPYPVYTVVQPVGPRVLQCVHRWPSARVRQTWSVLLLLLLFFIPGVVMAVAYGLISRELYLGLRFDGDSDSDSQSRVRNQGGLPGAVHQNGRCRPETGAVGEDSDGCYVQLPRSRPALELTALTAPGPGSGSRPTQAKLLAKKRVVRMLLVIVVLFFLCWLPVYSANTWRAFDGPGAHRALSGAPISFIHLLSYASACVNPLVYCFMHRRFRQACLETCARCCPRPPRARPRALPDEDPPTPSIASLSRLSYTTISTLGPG

Some results are limits rather than exact numbers.
Further: assay procedure not described here.

Sequence of Histamine H3 receptor (Q9Y5N1 whole entry): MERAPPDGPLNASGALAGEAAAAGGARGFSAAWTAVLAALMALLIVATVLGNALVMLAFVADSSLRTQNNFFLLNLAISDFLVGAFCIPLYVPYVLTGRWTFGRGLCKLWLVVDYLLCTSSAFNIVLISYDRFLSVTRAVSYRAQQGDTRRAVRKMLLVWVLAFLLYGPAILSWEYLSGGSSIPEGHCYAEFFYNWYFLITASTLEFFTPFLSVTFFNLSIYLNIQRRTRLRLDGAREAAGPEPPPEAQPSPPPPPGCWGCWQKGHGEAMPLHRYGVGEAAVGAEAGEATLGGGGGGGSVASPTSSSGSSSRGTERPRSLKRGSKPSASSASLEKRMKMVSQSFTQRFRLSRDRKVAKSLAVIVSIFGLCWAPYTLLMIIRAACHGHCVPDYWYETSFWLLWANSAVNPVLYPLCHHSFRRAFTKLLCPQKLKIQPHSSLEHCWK
Sequence of 5-hydroxytryptamine receptor 2B (P41595 whole entry): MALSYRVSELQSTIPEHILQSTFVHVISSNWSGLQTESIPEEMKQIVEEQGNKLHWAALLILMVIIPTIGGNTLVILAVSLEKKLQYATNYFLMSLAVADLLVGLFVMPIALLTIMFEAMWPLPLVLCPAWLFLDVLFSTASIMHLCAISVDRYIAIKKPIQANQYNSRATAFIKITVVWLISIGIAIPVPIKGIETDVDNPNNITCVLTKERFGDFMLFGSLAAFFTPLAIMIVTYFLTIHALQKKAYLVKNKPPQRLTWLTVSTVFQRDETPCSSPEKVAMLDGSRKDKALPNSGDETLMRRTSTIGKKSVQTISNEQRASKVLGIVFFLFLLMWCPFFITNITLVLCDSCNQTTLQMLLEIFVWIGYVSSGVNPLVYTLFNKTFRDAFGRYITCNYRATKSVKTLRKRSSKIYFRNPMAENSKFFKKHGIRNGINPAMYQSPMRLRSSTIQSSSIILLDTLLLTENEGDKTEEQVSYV

By AC50 is commonly meant the concentration giving half of the maximal activity seen. Low readings indicate greater potency, high ones weaker potency. For `CC(=O)Nc1ccc(O)cc1` [ACETAMINOPHEN], the AC50 (in assay [1]; on Histamine H3 receptor; in assay [2]; in assay [3]; in assay [4]) was over 30 µM each time.

As for `COC(c1ccccc1)(c1ccccc1)[C@H](Oc1nc(C)cc(C)n1)C(=O)O` [AMBRISENTAN], the concentration at half-maximal activity (AC50) (in assay [1]; on Histamine H3 receptor; in assay [3]; in assay [4]) was over 30 µM each time.

Turning to `CCc1oc2ccccc2c1C(=O)c1cc(I)c(O)c(I)c1` [BENZIODARONE], the AC50 is 29.9 µM in assay [1], 28.3 µM at Histamine H3 receptor, over 30 µM in assay [3] and 9.96 µM in assay [4].

Turning to `CN(C)CCn1nnnc1SCC1=C(C(=O)O)N2C(=O)[C@@H](NC(=O)Cc3csc(N)n3)[C@H]2SC1` [CEFOTIAM], the AC50 (in assay [1]; at Histamine H3 receptor; in assay [3]; in assay [4]) was over 30 µM each time.

Consider `COCc1c(C(C)C)nc(C(C)C)c(/C=C/[C@@H](O)C[C@@H](O)CC(=O)O)c1-c1ccc(F)cc1` [CERIVASTATIN], for which the AC50 (in assay [1]; on Histamine H3 receptor; in assay [3]; in assay [4]) was over 30 µM each time.

Regarding `Oc1c(Cl)cc(Cl)c2cccnc12` [CHLOROXINE], the AC50 (in assay [1]; at Histamine H3 receptor; in assay [3]; in assay [4]) was over 30 µM each time.

Consider `C[N+](C)(C)CCO` [CHOLINE], for which the half-maximal activity concentration (AC50) (in assay [1]; on Histamine H3 receptor; in assay [3]; in assay [4]) was over 30 µM throughout.

For the compound `CN(C)[C@@H](c1cccc(O)c1)[C@H]1CCCC[C@H]1O` [CIRAMADOL], the AC50 was over 30 µM in assay [1], over 30 µM on Histamine H3 receptor, over 30 µM in assay [3] and 29.6 µM in assay [4].

For `CN(C)CC(c1ccc(O)cc1)C1(O)CCCCC1` (stereo unspecified) [DESVENLAFAXINE], the AC50 (in assay [1]; at Histamine H3 receptor; in assay [3]) was over 30 µM throughout.

On to `CN(C)CCN1C(=O)c2ccccc2N(C)c2ccccc21` [DIBENZEPIN], for which the AC50 in assay [1] is 9.47 µM; on Histamine H3 receptor, over 30 µM; in assay [3], over 30 µM; in assay [4], over 30 µM.

As for `N[C@H](C(=O)O)[C@H](O)c1ccc(O)c(O)c1` [DROXIDOPA], the AC50 (in assay [1]; at Histamine H3 receptor; in assay [3]; in assay [4]) was over 30 µM each time.

On to `C[C@]12CC[C@@H]3c4ccc(O)cc4CC[C@H]3[C@@H]1C[C@@H](O)[C@@H]2O` [ESTRIOL], for which the concentration at half-maximal activity (AC50) was over 30 µM in assay [1], over 30 µM on Histamine H3 receptor, over 30 µM in assay [3] and 28.7 µM in assay [4].

On to `Cc1cc(C#N)cc(C)c1Oc1nc(Nc2ccc(C#N)cc2)nc(N)c1Br` [ETRAVIRINE], for which the AC50 is 20 µM in assay [1], over 30 µM on Histamine H3 receptor, over 30 µM in assay [3] and over 10 µM in assay [4].

Regarding `O=C(O)c1cc(O)ccc1O` [GENTISIC ACID], the concentration at half-maximal activity (AC50) (in assay [1]; at Histamine H3 receptor; in assay [3]; in assay [4]) was over 30 µM throughout.

Turning to `CCC1=C(C)CN(C(=O)NCCc2ccc(S(=O)(=O)NC(=O)N[C@H]3CC[C@H](C)CC3)cc2)C1=O` [GLIMEPIRIDE], the concentration at half-maximal activity (AC50) (in assay [1]; on Histamine H3 receptor; in assay [3]; in assay [4]) was over 30 µM in each case.

As for `CC(C)Nc1ncccn1` [ISAXONINE], the AC50 (in assay [1]; at Histamine H3 receptor; in assay [3]; in assay [4]) was over 30 µM throughout.

Turning to `N[C@@H](C(=O)N[C@@H]1C(=O)N2C(C(=O)O)=C(Cl)CC[C@H]12)c1ccccc1` [LORACARBEF ANHYDROUS], the AC50 (in assay [1]; at Histamine H3 receptor; in assay [3]; in assay [4]) was over 30 µM each time.

`C[C@H]1CNCCc2ccc(Cl)cc21` [LORCASERIN]: the AC50 in assay [5] worked out at 5.7 µM. That is a single-digit micromolar value.

Consider `OCCN1C[C@H](O)[C@@H](O)[C@H](O)[C@H]1CO` [MIGLITOL], for which the AC50 (in assay [1]; on Histamine H3 receptor; in assay [3]; in assay [4]) was over 30 µM in each case.

Turning to `CC(=O)N[C@@H]1[C@@H](O)[C@H](O)[C@@H](CO)O[C@H]1O` [N-ACETYLGLUCOSAMINE], the AC50 (in assay [1]; on Histamine H3 receptor; in assay [3]; in assay [4]) was over 30 µM each time.

As to `O=C(CCNNC(=O)c1ccncc1)NCc1ccccc1` [NIALAMIDE], the concentration at half-maximal activity (AC50) (in assay [1]; at Histamine H3 receptor; in assay [3]; in assay [4]) was over 30 µM in each case.

On to `CC[N+]1(C)[C@@H]2CC(OC(=O)[C@H](CO)c3ccccc3)C[C@H]1[C@@H]1O[C@@H]12` (stereo partly specified) [OXITROPIUM], for which the AC50 (in assay [1]; at Histamine H3 receptor; in assay [3]; in assay [4]) was over 30 µM in each case.

On to `CC(C)(C)NC[C@H](O)COc1ccccc1C1CCCC1` [PENBUTOLOL], for which the AC50 in assay [1] was 0.966 µM; at Histamine H3 receptor, over 30 µM; in assay [3], over 30 µM; in assay [4], over 30 µM.

Take `CC(C)(S)[C@@H](N)C(=O)O` [PENICILLAMINE]: the half-maximal activity concentration (AC50) (in assay [1]; on Histamine H3 receptor; in assay [3]; in assay [4]) was over 30 µM throughout.

Regarding `CN(C)S(=O)(=O)c1ccc2c(c1)N(CCCN1CCC(CCO)CC1)c1ccccc1S2` [PIPOTIAZINE], the half-maximal activity concentration (AC50) in assay [1] is 0.313 µM; on Histamine H3 receptor, over 30 µM; in assay [3], over 30 µM; in assay [4], 8.9 µM.

Take `COc1cc(NC(C)CCCN)c2ncccc2c1` (stereo unspecified) [PRIMAQUINE]: the AC50 in assay [6] was over 30 µM; in assay [3], 22.5 µM.

As for `C=C[C@H]1C[N@@]2CC[C@H]1C[C@H]2[C@H](O)c1ccnc2ccc(OC)cc12` [QUININE], the AC50 in assay [1] was 5.45 µM; on Histamine H3 receptor, over 30 µM; in assay [3], over 30 µM; in assay [4], over 30 µM.

Turning to `CCC(=O)NCC[C@@H]1CCc2ccc3c(c21)CCO3` [RAMELTEON], the AC50 (in assay [1]; on Histamine H3 receptor; in assay [3]; in assay [4]) was over 30 µM throughout.

`CCOC(=O)[C@H](CCc1ccccc1)N[C@@H](C)C(=O)N1[C@H](C(=O)O)C[C@H]2CCCC[C@@H]21` [TRANDOLAPRIL]: the AC50 (in assay [1]; on Histamine H3 receptor; in assay [3]; in assay [4]) was over 30 µM in each case.

In turn, `N[C@@H]1[C@H]2CN(c3nc4c(cc3F)c(=O)c(C(=O)O)cn4-c3ccc(F)cc3F)C[C@@H]12` [TROVAFLOXACIN] returned a half-maximal activity concentration (AC50) in assay [2] of over 30 µM.

As to `CCCCCCOc1nsnc1C1=CCCN(C)C1` [XANOMELINE], the AC50 was 1.39 µM in assay [1], 3.6 µM at Histamine H3 receptor, over 30 µM in assay [3] and 3.37 µM in assay [4].

These data come from ChEMBL document CHEMBL5291721, “A preclinical secondary pharmacology resource illuminates target-adverse drug reaction associations of marketed drugs” (Nat Commun, 2023).
